Tests used:
iHeps-iKCs co-culture [1] = assay: Bile acid accumulation (FDA); assay type: cell-based, human; conditions: 100 ng/ml LPS and 10 μM CPZ, 24 hours; versus untreated control
Protocol: (§1) Cells were incubated with 10 μM Fluorescein diacetate (FDA) and incubated for 30 minutes. The FDA-containing medium was removed and the cells were washed thrice with medium to remove any residual FDA. Images of bile acid accumulation were acquired using Olympus BX-DSU and quantified using Image J software and normalized to untreated control.

iHeps mono-culture [2] = assay: Cholestasis model, mono-culture control; assay type: cell-based, human; conditions: CPZ treatment
Protocol: as §1

iHeps-iKCs co-culture [3] = assay: Cytokine production (ELISA) in cholestasis model; assay type: cell-based, human; conditions: 100 ng/ml LPS and 10 μM CPZ, 24 hours
Protocol: (§2) Interleukin-6 (IL-6) and Tumor necrosis factor alpha (TNFα) levels in the media were measured using human IL-6 and TNFα enzyme-linked immunosorbent assay (ELISA) kits (Abcam) according to manufacturer's instructions.
as §1

[4] = tested on: BSEP, MDR1 and MRP1 mRNA in iHeps-iKCs co-culture; assay: qPCR of bile transporter genes in cholestasis model; assay type: cell-based, human; conditions: CPZ treatment
Protocol: RNA was isolated using RNeasy Micro-kit (Qiagen, Hilden, Germany), RNA amount was determined using a NanoDrop™ ND-1000 Spectrophotometer (Life Technologies) and RNA was converted to cDNA using iScript cDNA synthesis kit (Bio-Rad Laboratories, Hercules, Calif., USA). 7000 Fast Real-Time PCR System (Applied Biosystems, Foster City, Calif., USA) was used for qPCR using primers commercially obtained from GeneCopoeia, Inc.
(Rockville, Md., USA). The expression levels of all marker genes were normalized to that of glyceraldehyde-3-phosphate dehydrogenase (GAPDH).
as §1

[5] = Alamar Blue cell viability, pHeps mono-culture; assay type: cell-based, human; conditions: human, pHeps mono-culture
Protocol: (§3) For co-cultures, NL-Mφ, pKCs or iKCs were seeded at a density of 12,000 to 15,000 cells per well on Collagen I-coated 96-well plates. The cells were seeded in their respective media for 24 hours. Following cell attachment, medium was removed and iHeps or pHeps were seeded at a density of 2.5 times the density of the NL-Mφ/pKCs/iKCs in William's E media containing supplemental cocktail B. In some experiments, Advanced DMEM with supplement cocktail B (Media A) was used. The matching hepatocyte mono-culture controls were seeded in the same media and at the same density as the co-cultures.
(§4) Cell viability of differentiated hepatocytes was measured 24 hours after treatment with drugs using Alamar Blue® cell viability assay (Life Technologies) according to manufacturer's instructions. The following drugs were used for the cell viability assays: Acetaminophen, Trovafloxacin and Levofloxacin (all drugs from Sigma). Stock solutions of drugs were prepared in DMSO and then diluted in media to obtain desired working concentrations. Controls were treated with solvent alone (in absence of test compounds) and considered as 100% viability value.

[6] = Alamar Blue cell viability, iHeps mono-culture; assay type: cell-based, human; conditions: human, iHeps mono-culture (stem-cell derived)
Protocol: as §3, §4

in vitro = assay type: cell-based, human; conditions: human
Protocol: as §3, §4

[7] = Alamar Blue cell viability, pHeps-pKCs co-culture; assay type: cell-based, human; conditions: human, pHeps in co-culture with pKCs
Protocol: as §3, §4

pHeps mono-culture = assay: Alamar Blue cell viability, pHeps mono-culture; assay type: cell-based, human; conditions: Homo sapiens, 24 h
Protocol: as §3, §4

iHeps mono-culture [8] = assay: Alamar Blue cell viability, iHeps mono-culture; assay type: cell-based, human; conditions: Homo sapiens; iHeps mono-culture
Protocol: as §3, §4

[9] = tested on: pHeps in co-culture with NL-Mφ; assay type: cell-based, human
Protocol: as §3, §4

[10] = tested on: iHeps in co-culture with iKCs; assay: in vitro; assay type: cell-based, human
Protocol: as §3, §4

[11] = tested on: pHeps in co-culture with pKCs; assay: Alamar Blue cell viability, pHeps-pKCs co-culture; assay type: cell-based, human; conditions: Homo sapiens, 24 h
Protocol: as §3, §4

[12] = tested on: pHeps in co-culture with iKCs; assay: Alamar Blue cell viability, pHeps-iKCs co-culture; assay type: cell-based, human; conditions: Homo sapiens, 24 h
Protocol: as §3, §4

[13] = Alamar Blue cell viability, pHeps-iKCs co-culture; assay type: cell-based, human; conditions: human, pHeps in co-culture with iKCs; 100 μM, pHeps-iKCs co-culture
Protocol: as §3, §4

KCs = conditions: reference [46], cited from earlier work
iKCs = assay: LPS-induced cytokine production (ELISA) in iKCs; assay type: cell-based, human; design: TNFα production upon LPS stimulation: unit not given here
Protocol: as §2

pKCs = assay: LPS-induced cytokine production (ELISA) in pKCs; assay type: cell-based, human
Protocol: as §2

NL-Mφ = assay: LPS-induced cytokine production (ELISA) in NL-Mφ; assay type: cell-based, human
Protocol: as §2

pHeps = assay: LPS-induced cytokine production (ELISA) in pHeps; assay type: cell-based, human
Protocol: as §2

[14] = 100 ng/ml LPS for 16 hours, versus no LPS

## CN(C)CCCN1c2ccccc2Sc2ccc(Cl)cc21 [CPZ, Chlorpromazine]
iHeps-iKCs co-culture [1]
  bile acid accumulation: Significant bile acid accumulation
iHeps mono-culture [2]
  bile acid accumulation, cytokine production and reduction in transporter gene expression: not in mono-culture
iHeps-iKCs co-culture [3]
  IL-6 production, fold compared to untreated control: 4.5 fold
  TNFα production, fold compared to untreated control: 6.5 fold
[4]
  mRNA expression of bile salt export pump (BSEP), fold change to untreated control: 0.3±0.1 folds
  mRNA expression of multidrug resistance (MDR1), fold change to untreated control: 0.4±0.2 folds
  mRNA expression of multidrug resistance-associated protein 1 (MRP1), fold change to untreated control: 0.5±0.2 folds

## C[C@H]1COc2c(N3CCN(C)CC3)c(F)cc3c(=O)c(C(=O)O)cn1c23 [Levofloxacin]
[5]
  viability at 24 h: > 90%
[6]
  viability at 24 h: > 90%
In vitro
  viability at 24 h: > 90%
[7]
  viability at 24 h: > 90%

## CC(=O)Nc1ccc(O)cc1 [APAP, Acetaminophen]
pHeps mono-culture
  IC50: 45 mM
iHeps mono-culture [8]
  IC50: 54 mM
[9]
  cell death, co-culture versus pHeps mono-culture: No difference in cell death
[10]
  cell viability, donor-matched co-culture versus mono-culture: no significant difference
[10]; Homo sapiens, read-out: IC50 (cell viability)
  IC50: 27 mM
[11]
  IC50: 12.5 mM
[12]
  IC50: 25 mM

## N[C@@H]1[C@H]2CN(c3nc4c(cc3F)c(=O)c(C(=O)O)cn4-c3ccc(F)cc3F)C[C@@H]12 [Trovafloxacin]
[5]; 100 μM
  viability at 24 h, 100 µM: 73.8%
[9]
  cell viability, co-culture versus mono-culture: No difference in cell viability
[7]; 100 μM, pHeps-pKCs co-culture
  viability at 24 h, 100 µM: 53.8%
[13]
  viability at 24 h, 100 µM: 55.8%

## lipopolysaccharide [LPS]
KCs; KCs
  TNFα production upon LPS stimulation: 4000 pg/mL
KCs
  IL-6 production upon LPS stimulation: 800 pg/mL
iKCs
  IL-6 production upon LPS stimulation: 5200 pg/mL
  TNFα production upon LPS stimulation: 10,000
iKCs; 100 ng/ml LPS for 16 hours
  IL-6 level, LPS-treated: 5260 pg/million cells/24 h
iKCs; [14]
  fold increase in IL-6 production: 35 fold
  fold increase in TNFα production: 33 folds
pKCs
  IL-6 production upon LPS stimulation: 2018 pg/mL
pKCs; 100 ng/ml LPS for 16 hours
  IL-6 level, LPS-treated: 3420 pg/million cells/24 h
pKCs; [14]
  fold increase in IL-6 production: 25 folds
  fold increase in TNFα production: 35 folds
NL-Mφ; [14]
  fold increase in IL-6 production: 103 folds
NL-Mφ; 100 ng/ml LPS, level without LPS not detectable
  fold increase in TNFα production: > 1000 folds
pHeps
  TNFα production upon LPS activation: below detectable levels

Reference: patent publication US20230034359A1, “GENERATION OF MATURE KUPFFER CELLS” (AGENCY FOR SCIENCE, TECHNOLOGY AND RESEARCH, priority 2018, published 2023)
